Test results taken from patent US20260297042A1, “BIARYLAMIDE DERIVATIVES AND THEIR USE AS PKMYT1 INHIBITORS” (CANCER RESEARCH TECHNOLOGY LIMITED, priority 2023, published 2026).

Assays:
[1] = molecular target: T1, Cellular PKMYT1 Biomarker CDK1 pT14 (Homo sapiens, UniProt Q99640); assay: Inhibition of cellular PKMYT1 biomarker CDK1 pT14 in OVCAR 3 cells (immunoblot); type: cell-based; settings: 20 hours incubation
T1 construct: read-out CDK1 phospho-T14 immunoblot
T1 sequence (Q99640 1-499): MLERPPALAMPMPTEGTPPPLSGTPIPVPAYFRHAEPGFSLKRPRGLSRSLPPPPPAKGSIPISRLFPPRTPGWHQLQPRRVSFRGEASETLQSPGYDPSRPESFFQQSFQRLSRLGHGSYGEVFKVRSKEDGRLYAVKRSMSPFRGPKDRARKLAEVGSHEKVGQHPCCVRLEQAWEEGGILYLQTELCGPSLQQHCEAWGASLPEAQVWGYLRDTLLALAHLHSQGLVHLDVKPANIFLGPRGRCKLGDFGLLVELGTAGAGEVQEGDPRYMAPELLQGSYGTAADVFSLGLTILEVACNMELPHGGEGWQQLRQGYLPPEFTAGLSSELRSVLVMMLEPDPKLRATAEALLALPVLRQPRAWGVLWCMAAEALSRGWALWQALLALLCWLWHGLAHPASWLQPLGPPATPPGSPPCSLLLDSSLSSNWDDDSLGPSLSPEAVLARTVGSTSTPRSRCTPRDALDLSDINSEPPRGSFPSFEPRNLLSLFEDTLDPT
Method: To determine compound PKMYT1 IC50 in a cellular assay, OVCAR 3 cells were incubated at 37° C. in 5% CO2 atmosphere. The cells were maintained in RPMI medium supplemented with 20% foetal bovine serum, 1X non essential amino acids, 1 mM sodium pyruvate, Glutamax and insulin. Cells were seeded into 12-well plates at low density (50,000-200,000 cells per well), grown to confluence (~350-400,000 cells per well) and then treated with a range of concentrations of PKMYT1 inhibitors. The cells were incubated 20 hours and then harvested into 1X Laemmli Sample Buffer (BIORAD) without 2-mercaptoethanol, heated to 95° C. for 5 min, centrifuged and sonicated using a microprobe for 15 sec, 21W to shear the DNA.
The samples were analysed by immunoblot on a Jess Automated Western Blot System (BioTechne). The samples were separated using the 12-230 kDa Separation Module (BioTechne,) and blotted using an anti-CDK1 phospho T14 antibody (Abcam, #ab58509) and an anti-vinculin antibody (Abcam, #126002). Specific binding was detected by fluorescence using the Anti-Rabbit Detection Module (BioTechne, #DM-001), quantified using Compass for Simple Western software, and IC50 values were calculated by regression analysis in GraphPad Prism.

KYSE-30 cells = assay: Cancer cell line proliferation assay, ATP-based cell viability (Cell Titre Glow), KYSE-30 (normal CCNE1); settings: Homo sapiens, KYSE-30 cells (normal CCNE1), concentration that achieves 50% cell growth proliferation inhibition, read-out: KYSE30 Gl50
In short: (§1)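 Sensitivity to PKMYT1 inhibitors was measured by ATP-based luminescence (CellTiter-Glo) as the proliferation endpoint. GI50, the concentration giving 50% growth inhibition, was estimated from curve fits.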

Human PKMYT1 = molecular target: T2, Human PKMYT1 (Homo sapiens, UniProt Q99640); assay: PKMYT1 biochemical ADP-Glo enzymatic assay; settings: ADP-Glo
T2 construct: Human PKMYT1 75-362 was cloned as a TEV cleavable 6xHis fusion; 6xHis (TEV cleavable) (cleaved yes); made in house; host or cells: bacterial cells
T2 sequence (Q99640 75-362): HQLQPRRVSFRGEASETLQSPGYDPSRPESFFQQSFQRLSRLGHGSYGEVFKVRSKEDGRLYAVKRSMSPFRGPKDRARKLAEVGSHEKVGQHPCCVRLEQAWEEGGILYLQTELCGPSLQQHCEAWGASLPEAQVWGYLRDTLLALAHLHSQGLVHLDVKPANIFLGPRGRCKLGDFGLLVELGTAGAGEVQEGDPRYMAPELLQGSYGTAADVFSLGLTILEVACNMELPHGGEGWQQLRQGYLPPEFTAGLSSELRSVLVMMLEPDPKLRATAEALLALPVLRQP
In short: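 PKMYT1 75-362 (His-cleaved, bacterial) 15 nM; ATP 500 µM; HEPES pH 7.5, MgCl2, EGTA, Brij-35, 1% DMSO; 60 min, 26 °C; ADP-Glo Max luminescence; 10-pt 3-fold titration → IC50; replicates within 3-fold, r2 >0.9.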

WEE1 = molecular target: T3, WEE1 (Homo sapiens, UniProt P30291); assay: Selectivity versus WEE1 assay (ADP-Glo enzymatic assay); type: biochemical; settings: for IC50: ADP-Glo; for PKMYT1 vs. WEE1 selectivity: fold difference in selectivity for PKMYT1 over WEE1
T3 construct: purchased Thermo Fisher PR7373A
T3 sequence (P30291 whole entry): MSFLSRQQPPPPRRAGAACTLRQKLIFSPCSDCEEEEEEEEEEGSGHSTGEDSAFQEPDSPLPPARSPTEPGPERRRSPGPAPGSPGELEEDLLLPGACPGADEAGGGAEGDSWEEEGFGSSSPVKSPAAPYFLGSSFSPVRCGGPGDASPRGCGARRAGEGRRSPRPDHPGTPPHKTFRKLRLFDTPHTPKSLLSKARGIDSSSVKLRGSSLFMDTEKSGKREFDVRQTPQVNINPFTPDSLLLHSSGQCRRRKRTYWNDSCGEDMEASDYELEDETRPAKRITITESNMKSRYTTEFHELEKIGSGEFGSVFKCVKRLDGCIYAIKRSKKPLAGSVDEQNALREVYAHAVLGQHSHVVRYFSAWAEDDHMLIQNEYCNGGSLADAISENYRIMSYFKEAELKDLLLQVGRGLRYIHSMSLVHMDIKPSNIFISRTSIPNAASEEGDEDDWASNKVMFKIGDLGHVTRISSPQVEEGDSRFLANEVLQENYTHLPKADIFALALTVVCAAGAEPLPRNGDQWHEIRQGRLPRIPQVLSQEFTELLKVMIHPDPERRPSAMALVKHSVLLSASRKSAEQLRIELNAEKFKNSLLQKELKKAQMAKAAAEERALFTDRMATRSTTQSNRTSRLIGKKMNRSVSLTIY
In short: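 15 nM WEE1, 30 µM ATP, 50 mM HEPES pH 7.5, 10 mM MgCl2, 1 mM EGTA, 0.01% Brij-35, 1% DMSO; 60 min, 26° C; ADP-Glo luminescence; IC50 from curve fit, replicates within 3-fold, r2 >0.9.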

OVCAR 3 cells = assay: Cancer cell line proliferation assay, ATP-based cell viability (Cell Titre Glow), OVCAR 3 (CCNE1-amplified); settings: KYSE30 (normal CCNE1) GI50 vs. OVCAR 3 (CCNE1-amplified) GI50
In short: as §1

[2] = 15 nM PKMYT1 kinase domain, 500 µM ATP, 60 minutes at 26° C., banded
[3] = 15 nM WEE1, 60 minutes at 26° C., banded
[4] = banded, ">N" = at least in this band but could be higher
[5] = PKMYT1 kinase domain 15 nM, banded values

| IC50 [1] [nM] | IC50 (Human PKMYT1; [2]) [nM] | IC50 (WEE1; [3]) [nM] | PKMYT1 vs. WEE1 selectivity (WEE1; [4]) | IC50 (Human PKMYT1; [5]) [nM] | IC50 (WEE1; WEE1 15 nM, banded values) [nM] | PKMYT1 vs. WEE1 selectivity (WEE1; banded) | Compound | GI50 (KYSE-30 cells) [nM] | Selectivity ratio KYSE30 Gl50 vs. OVCAR3 Gl50 (OVCAR 3 cells) |
| --- | --- | --- | --- | --- | --- | --- | --- | --- | --- |
| < 100 | < 50 | 1000 to 11000 | X (100-<1000 fold) | – | – | – | Cc1ccc(O)c(C)c1NC(=O)c1cnc(Nc2nn(C)c3ccccc23)s1 [BAA-126, N-(3-hydroxy-2,6-dimethyl-phenyl)-2-[(1-methylindazol-3-yl)amino]thiazole-5-carboxamide] | > 5000 | Y (>20 fold) |
| 100 to 1000 | < 50 | 50 to 1000 | W (10-<100 fold) | – | – | – | Cc1nc(Nc2ncc(C(=O)Nc3c(C)ccc(O)c3C)s2)cc(N2CCN(CCO)CC2)n1 [BAA-220, N-(3-hydroxy-2,6-dimethyl-phenyl)-2-[[6-[4-(2-hydroxyethyl)piperazin-1-yl]-2-methyl-pyrimidin-4-yl]amino]thiazole-5-carboxamide] | > 5000 | Y (>20 fold) |
| < 100 | < 50 | 1000 to 11000 | X (100-<1000 fold) | – | – | – | Cc1ccc(O)c(C)c1NC(=O)c1cnc(Nc2c3cccnc3nn2C)s1 [BAA-243, N-(3-hydroxy-2,6-dimethylphenyl)-2-((2-methyl-2H-pyrazolo[3,4-b]pyridin-3-yl)amino)thiazole-5-carboxamide] | > 5000 | X (3-20 fold) |
| < 100 | < 50 | > 11000 | Y (1000-5000 fold) | – | – | – | Cc1cn(S(=O)(=O)C(C)C)nc1Nc1ncc(C(=O)Nc2c(C)ccc(O)c2C)s1 [BAA-268, N-(3-hydroxy-2,6-dimethylphenyl)-2-((1-(isopropylsulfonyl)-4-methyl-1H-pyrazol-3-yl)amino) thiazole-5-carboxamide] | > 5000 | Y (>20 fold) |
| < 100 | < 50 | 50 to 1000 | W (10-<100 fold) | – | – | – | Cc1cn(C2COC2)nc1Nc1ncc(C(=O)Nc2c(C)ccc(O)c2C)s1 [BAA-269, N-(3-hydroxy-2,6-dimethylphenyl)-2-((4-methyl-1-(oxetan-3-yl)-1H-pyrazol-3-yl)amino) thiazole-5-carboxamide] | 500 to 5000 | Y (>20 fold) |
| < 100 | < 50 | 1000 to 11000 | X (100-<1000 fold) | – | – | – | Cc1cn(C2CCC2)nc1Nc1ncc(C(=O)Nc2c(C)ccc(O)c2C)s1 [BAA-270, 2-((1-cyclobutyl-4-methyl-1H-pyrazol-3-yl)amino)-N-(3-hydroxy-2,6-dimethylphenyl)thiazole-5-carboxamide] | < 500 | Y (>20 fold) |
| < 100 | < 50 | > 11000 | X (100-<1000 fold) | – | – | – | Cc1cn(CC(F)(F)F)nc1Nc1ncc(C(=O)Nc2c(C)ccc(O)c2C)s1 [BAA-271, N-(3-hydroxy-2,6-dimethylphenyl)-2-((4-methyl-1-(2,2,2-trifluoroethyl)-1H-pyrazol-3-yl)amino) thiazole-5-carboxamide] | > 5000 | Y (>20 fold) |
| < 100 | – | – | – | < 50 | – | – | Cc1ccc(O)c(C)c1NC(=O)c1cnc(Nc2cccc(CC(=O)N(C)C3CC3)n2)s1 [BAA-428, 2-((6-(2-(Cyclopropyl(methyl)amino)-2-oxoethyl)pyridin-2-yl)amino)-N-(3-hydroxy-2,6-dimethylphenyl)thiazole-5-carboxamide] | > 5000 | Y (>20 fold) |
| 100 to 1000 | – | – | – | 50 to 1000 | > 11000 | X (100-<1000 fold) | Cc1cn(CC(=O)N2CCCC2)nc1Nc1ncc(C(=O)Nc2c(C)cc(Cl)c(O)c2C)s1 [BAA-553, N-(4-chloro-3-hydroxy-2,6-dimethylphenyl)-2-((4-methyl-1-(2-oxo-2-(pyrrolidin-1-yl)ethyl)-1H-pyrazol-3-yl)amino) thiazole-5-carboxamide] | – | – |
| < 100 | – | – | – | < 50 | 1000 to 11000 | X (100-<1000 fold) | CCN(CC)C(=O)C(CO)n1cc(C)c(Nc2ncc(C(=O)Nc3c(C)ccc(O)c3C)s2)n1 (centres unmarked) [BAA-576, 2-((1-(1-(diethylamino)-3-hydroxy-1-oxopropan-2-yl)-4-methyl-1H-pyrazol-3-yl)amino)-N-(3-hydroxy-2,6-dimethylphenyl)thiazole-5-carboxamide] | – | – |
| < 100 | – | – | – | < 50 | > 11000 | X (100-<1000 fold) | COCC(C(=O)N1CCCC1)n1cc(C)c(Nc2ncc(C(=O)Nc3c(C)ccc(O)c3C)s2)n1 (centres unmarked) [BAA-577, N-(3-Hydroxy-2.6-dimethylphenyl)-2-((1-(3-methoxy-1-oxo-1-(pyrrolidin-1-yl)propan-2-yl)-4-methyl-1H-pyrazol-3-yl)amino)thiazole-5-carboxamide] | – | – |
| 100 to 1000 | – | – | – | < 50 | 1000 to 11000 | X (100-<1000 fold) | Cc1cc(Nc2ncc(C(=O)Nc3c(C)ccc(O)c3C)s2)ncn1 [BAA-580, N-(3-hydroxy-2,6-dimethylphenyl)-2-((6-methylpyrimidin-4-yl)amino)thiazole-5-carboxamide] | – | – |
| 100 to 1000 | – | – | – | < 50 | 1000 to 11000 | X (100-<1000 fold) | Cc1ccc(O)c(C)c1NC(=O)c1cnc(Nc2n[nH]cc2F)s1 [BAA-593, 2-((4-Fluoro-1H-pyrazol-3-yl)amino)-N-(3-hydroxy-2,6-dimethylphenyl)thiazole-5-carboxamide] | – | – |
| 100 to 1000 | – | – | – | < 50 | > 11000 | X (100-<1000 fold) | Cc1ccc(O)c(C)c1NC(=O)c1cnc(Nc2ccn(C3CCN(C)C3=O)n2)s1 (centres unmarked) [BAA-601, N-(3-hydroxy-2,6-dimethylphenyl)-2-((1-(1-methyl-2-oxopyrrolidin-3-yl)-1H-pyrazol-3-yl)amino)thiazole-5-carboxamide] | – | – |
| 100 to 1000 | – | – | – | < 50 | > 11000 | Y (1000-5000 fold) | Cc1ccc(O)c(C)c1NC(=O)c1cnc(Nc2nccc3cccnc23)s1 [BAA-604, 2-((1,7-naphthyridin-8-yl)amino)-N-(3-hydroxy-2,6-dimethylphenyl)thiazole-5-carboxamide] | – | – |
